Results as given in publication PMC3494675, “Structure-Function Analysis of the Glioma Targeting NFL-TBS.40-63 Peptide Corresponding to the Tubulin-Binding Site on the Light Neurofilament Subunit” (PLoS ONE, 2012).
Peptide text beside a SMILES is read from it. * marks the point of attachment. Biotin = O=C1N[C@H]2[C@H](CS[C@H]2CCCCC(=O)*)N1

Columns and labels:
[1] = system: T98G human glioblastoma cells; assay: Peptide incorporation into T98G cells (immunocytochemistry, cell counting); type: cell-based; settings: 6 hours; for Peptide incorporation (% of cells): T98G cells, 10 µM biotinylated peptide, Alexa-labeled avidin/streptavidin fluorescence microscopy, minimum 200 cells per experiment, mean ± S.E.M., triplicated
Procedure, shortened: (§1)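 Cells on cover slips were cultured 6 h with 10 μM biotinylated peptide, permeabilized, and stained with anti-β-tubulin plus fluorescent streptavidin. By fluorescence/confocal microscopy, ≥200 cells per experiment were scored for peptide uptake and for a normal versus destroyed microtubule network; at least three repeats.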

[2] = system: T98G human glioblastoma cells; assay: Disintegration of the microtubule network in T98G cells (anti-tubulin immunostaining, cell counting); type: cell-based; settings: 6 hours; for Disintegration of MT (% of cells): T98G cells, 10 µM biotinylated peptide, anti-tubulin immunostaining, minimum 200 cells per experiment, mean ± S.E.M., triplicated
Procedure, shortened: as §1

| SMILES | Peptide incorporation (% of cells) [1] | Disintegration of MT (% of cells) [2] | Cell penetration / internalization in T98G cells (in words) ([1]; 10 µM, immunocytochemistry, compared to original NFL-TBS.40-63) | Effect on MT network of T98G / glioma cells (in words) ([2]; 10 µM, immunocytochemistry) |
| --- | --- | --- | --- | --- |
| CC(C)C[C@H](NC(=O)[C@H](CO)NC(=O)[C@H](CO)NC(=O)[C@H](CO)NC(=O)[C@@H](NC(=O)[C@@H]1CCCN1C(=O)[C@H](C)NC(=O)[C@H](CO)NC(=O)[C@H](Cc1ccc(O)cc1)NC(=O)[C@H](CO)NC(=O)[C@H](CO)NC(=O)[C@H](Cc1ccc(O)cc1)NC(=O)CCCC[C@@H]1SC[C@@H]2NC(=O)N[C@@H]21)C(C)C)C(=O)N[C@@H](CO)C(=O)N[C@H](C(=O)N[C@@H](CCCNC(=N)N)C(=O)N[C@@H](CCCNC(=N)N)C(=O)N[C@@H](CO)C(=O)N[C@@H](C)C(=O)N[C@@H](CO)C(=O)N[C@@H](CO)C(=O)N[C@@H](CO)C(=O)N[C@@H](CO)C(=O)NCC(=O)N[C@@H](CO)C(N)=O)C(C)C [Tyr18Ala] (Biotin-YSSYSAPVSSSLSVRRSASSSSGS-NH2) | 7.9±0.9 % of cells | 16.0±2.8 % of cells | – | – |
| CC(C)C[C@H](NC(=O)[C@H](CO)NC(=O)[C@H](CO)NC(=O)[C@H](CO)NC(=O)[C@H](C)NC(=O)[C@@H]1CCCN1C(=O)[C@H](C)NC(=O)[C@H](CO)NC(=O)[C@H](Cc1ccc(O)cc1)NC(=O)[C@H](CO)NC(=O)[C@H](CO)NC(=O)[C@H](Cc1ccc(O)cc1)NC(=O)CCCC[C@@H]1SC[C@@H]2NC(=O)N[C@@H]21)C(=O)N[C@@H](CO)C(=O)N[C@H](C(=O)N[C@@H](CCCNC(=N)N)C(=O)N[C@@H](CCCNC(=N)N)C(=O)N[C@@H](CO)C(=O)N[C@@H](Cc1ccc(O)cc1)C(=O)N[C@@H](CO)C(=O)N[C@@H](CO)C(=O)N[C@@H](CO)C(=O)N[C@@H](CO)C(=O)NCC(=O)N[C@@H](CO)C(N)=O)C(C)C [Val8Ala] (Biotin-YSSYSAPASSSLSVRRSYSSSSGS-NH2) | 9.9±3.4 % of cells | 23.6±2.1 % of cells | – | – |
| CC(C)C[C@H](NC(=O)[C@H](CO)NC(=O)[C@H](CO)NC(=O)[C@H](CO)NC(=O)[C@@H](NC(=O)[C@@H]1CCCN1C(=O)[C@H](C)NC(=O)[C@H](CO)NC(=O)[C@H](Cc1ccc(O)cc1)NC(=O)[C@H](CO)NC(=O)[C@H](CO)NC(=O)[C@H](Cc1ccc(O)cc1)NC(=O)CCCC[C@@H]1SC[C@@H]2NC(=O)N[C@@H]21)C(C)C)C(=O)N[C@@H](CO)C(=O)N[C@@H](C)C(=O)N[C@@H](CCCNC(=N)N)C(=O)N[C@@H](CCCNC(=N)N)C(=O)N[C@@H](CO)C(=O)N[C@@H](Cc1ccc(O)cc1)C(=O)N[C@@H](CO)C(=O)N[C@@H](CO)C(=O)N[C@@H](CO)C(=O)N[C@@H](CO)C(=O)NCC(=O)N[C@@H](CO)C(N)=O [Val14Ala] (Biotin-YSSYSAPVSSSLSARRSYSSSSGS-NH2) | 0 % of cells | 13.8±3.9 % of cells | fails to enter in cells | does not affect the MT network |
| CC(C)C[C@H](NC(=O)[C@H](CO)NC(=O)[C@H](CC(C)C)NC(=O)[C@H](CO)NC(=O)[C@H](CO)NC(=O)[C@H](CO)NC(=O)[C@@H](NC(=O)[C@@H]1CCCN1C(=O)[C@H](C)NC(=O)[C@H](CO)NC(=O)[C@H](Cc1ccc(O)cc1)NC(=O)[C@H](CO)NC(=O)[C@H](CO)NC(=O)[C@H](Cc1ccc(O)cc1)NC(=O)CCCC[C@@H]1SC[C@@H]2NC(=O)N[C@@H]21)C(C)C)C(=O)N[C@@H](CCCNC(=N)N)C(=O)N[C@@H](CCCNC(=N)N)C(=O)N[C@@H](CO)C(=O)N[C@@H](Cc1ccc(O)cc1)C(=O)N[C@@H](CO)C(=O)N[C@@H](CO)C(=O)N[C@@H](CO)C(=O)N[C@@H](CO)C(=O)NCC(=O)N[C@@H](CO)C(N)=O [Val14Leu] (Biotin-YSSYSAPVSSSLSLRRSYSSSSGS-NH2) | 44.2±2.2 % of cells | 39.2±2.4 % of cells | – | – |
